Reference: PubChem BioAssay (NCI)
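Method: 48-hour compound exposure of cells in 96-well plates, five concentrations, linear interpolation of endpoints. GI50: concentration for 50% inhibition of growth. The concentration for full growth arrest is given as TGI.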

Experiments:
Test in all cases: NCI anticancer screen, dose series, 48 h
[1] = test system: UACC-257 melanoma
[2] = test system: NCI/ADR-RES ovarian
[3] = test system: SF-295 CNS
[4] = test system: KM12 colon
[5] = test system: SF-539 CNS
[6] = test system: SW-620 colon
[7] = test system: A498 renal
[8] = test system: SK-MEL-28 melanoma
[9] = test system: LOX IMVI melanoma
[10] = test system: MDA-N
[11] = test system: K-562 leukemia
[12] = test system: NCI-H226 lung
[13] = test system: MDA-MB-231 breast
[14] = test system: MOLT-4 leukemia
[15] = test system: HCT-116 colon
[16] = test system: CAKI-1 renal
[17] = test system: OVCAR-5 ovarian
[18] = test system: HCC-2998 colon
[19] = test system: SK-MEL-5 melanoma
[20] = test system: HOP-92 NSCLC
[21] = test system: 786-0 renal
[22] = test system: MDA-MB-435
[23] = test system: RPMI-8226 leukemia
[24] = test system: SF-268 CNS
[25] = test system: SR leukemia
[26] = test system: OVCAR-4 ovarian
[27] = test system: RXF 393 renal
[28] = test system: PC-3 prostate
[29] = test system: A549 NSCLC
[30] = test system: NCI-H522 lung
[31] = test system: UACC-62 melanoma
[32] = test system: U251 CNS
[33] = test system: SK-MEL-2 melanoma
[34] = test system: HT29 colon
[35] = test system: SN12C renal
[36] = test system: SNB-19 CNS
[37] = test system: TK-10 renal
[38] = test system: DU-145 prostate
[39] = test system: HCT-15 colon
[40] = test system: NCI-H460 lung
[41] = test system: UO-31 renal
[42] = test system: M14 melanoma
[43] = test system: NCI-H23 lung
[44] = test system: MCF7 breast
[45] = test system: COLO 205 colon
[46] = test system: ACHN renal
[47] = test system: CCRF-CEM leukemia
[48] = test system: OVCAR-8 ovarian
[49] = test system: SK-OV-3 ovarian
[50] = test system: HOP-62 NSCLC
[51] = test system: SNB-75 CNS
[52] = test system: EKVX NSCLC
[53] = test system: MALME-3M melanoma
[54] = test system: BT-549 breast
[55] = test system: T-47D breast
[56] = test system: OVCAR-3 ovarian
[57] = test system: HS 578T breast
[58] = test system: IGROV1 ovarian
[59] = test system: HL-60(TB) leukemia

CC1=CCC2CC1NC(=O)CCOCCC(=O)NC2(C)C (stereo not given)
TGI [1]: > 100 µM
TGI [2]: > 100 µM
TGI [3]: > 100 µM
TGI [4]: > 100 µM
TGI [5]: > 100 µM
TGI [6]: > 100 µM
TGI [7]: > 100 µM
TGI [8]: > 100 µM
TGI [9]: > 100 µM
TGI [10]: > 100 µM
TGI [11]: > 100 µM
TGI [12]: > 100 µM
TGI [13]: > 100 µM
TGI [14]: > 100 µM
TGI [15]: > 100 µM
TGI [16]: > 100 µM
TGI [17]: > 100 µM
TGI [18]: > 100 µM
TGI [19]: > 100 µM
TGI [20]: > 100 µM
TGI [21]: > 100 µM
TGI [22]: > 100 µM
TGI [23]: > 100 µM
TGI [24]: > 100 µM
TGI [25]: > 100 µM
TGI [26]: > 100 µM
TGI [27]: > 100 µM
TGI [28]: > 100 µM
TGI [29]: > 100 µM
TGI [30]: > 100 µM
TGI [31]: > 100 µM
TGI [32]: > 100 µM
TGI [33]: > 100 µM
TGI [34]: > 100 µM
TGI [35]: > 100 µM
TGI [36]: > 100 µM
TGI [37]: > 100 µM
TGI [38]: > 100 µM
TGI [39]: > 100 µM
TGI [40]: > 100 µM
TGI [41]: > 100 µM
TGI [42]: > 100 µM
TGI [43]: > 100 µM
TGI [44]: > 100 µM
TGI [45]: > 100 µM
TGI [46]: > 100 µM
TGI [47]: > 100 µM
TGI [48]: > 100 µM
TGI [49]: > 100 µM

C#Cc1cccc(NC(=O)c2ccc(NC(=O)CCl)cc2)c1
GI50 [1]: > 82.5 µM
TGI [1]: > 82.5 µM
GI50 [2]: 19.6 µM
TGI [2]: 67.1 µM
GI50 [3]: > 82.5 µM
TGI [3]: > 82.5 µM
GI50 [4]: 47 µM
TGI [4]: > 82.5 µM
GI50 [5]: 12.6 µM
TGI [5]: 24.7 µM
GI50 [50]: 68.3 µM
TGI [50]: > 82.5 µM
GI50 [6]: 15.7 µM
TGI [6]: 34 µM
GI50 [51]: 17.2 µM
TGI [51]: > 82.5 µM
GI50 [7]: > 82.5 µM
TGI [7]: > 82.5 µM
GI50 [8]: > 82.5 µM
TGI [8]: > 82.5 µM
GI50 [9]: 11.2 µM
TGI [9]: 23.5 µM
GI50 [11]: 17.4 µM
TGI [11]: > 82.5 µM
GI50 [12]: 48.7 µM
TGI [12]: > 82.5 µM
GI50 [13]: 24 µM
TGI [13]: > 82.5 µM
GI50 [14]: 12.4 µM
TGI [14]: 40 µM
GI50 [15]: 11.9 µM
TGI [15]: 36.3 µM
GI50 [16]: > 82.5 µM
TGI [16]: > 82.5 µM
GI50 [17]: 21.4 µM
TGI [17]: > 82.5 µM
GI50 [18]: > 82.5 µM
TGI [18]: > 82.5 µM
GI50 [19]: 24.9 µM
TGI [19]: > 82.5 µM
GI50 [20]: 11.4 µM
TGI [20]: 26.4 µM
GI50 [21]: 14.6 µM
TGI [21]: 29.8 µM
GI50 [22]: 43.8 µM
TGI [22]: > 82.5 µM
GI50 [23]: 14.7 µM
TGI [23]: 44.1 µM
GI50 [52]: > 82.5 µM
TGI [52]: > 82.5 µM
GI50 [24]: 18.7 µM
TGI [24]: > 82.5 µM
GI50 [53]: 16.4 µM
TGI [53]: 53.3 µM
GI50 [25]: 7.17 µM
TGI [25]: 26.6 µM
GI50 [26]: 16.7 µM
TGI [26]: 72 µM
GI50 [27]: 23.9 µM
TGI [27]: > 82.5 µM
GI50 [54]: 11.1 µM
TGI [54]: 23.9 µM
GI50 [55]: 31.2 µM
TGI [55]: > 82.5 µM
GI50 [56]: 12.7 µM
TGI [56]: 25.7 µM
GI50 [28]: 15.4 µM
TGI [28]: 60.4 µM
GI50 [29]: > 82.5 µM
TGI [29]: > 82.5 µM
GI50 [57]: 27.9 µM
TGI [57]: > 82.5 µM
GI50 [30]: 13.5 µM
TGI [30]: 35 µM
GI50 [31]: 36.9 µM
TGI [31]: > 82.5 µM
GI50 [32]: 14.9 µM
TGI [32]: 34.8 µM
GI50 [33]: 69.8 µM
TGI [33]: > 82.5 µM
GI50 [34]: 16 µM
TGI [34]: 45.4 µM
GI50 [35]: 18.6 µM
TGI [35]: > 82.5 µM
GI50 [36]: 55.6 µM
TGI [36]: > 82.5 µM
GI50 [37]: 42.7 µM
TGI [37]: > 82.5 µM
GI50 [38]: > 82.5 µM
TGI [38]: > 82.5 µM
GI50 [39]: 9.95 µM
TGI [39]: 25 µM
GI50 [40]: 29.2 µM
TGI [40]: > 82.5 µM
GI50 [41]: 9.48 µM
TGI [41]: 20.3 µM
GI50 [42]: 22.2 µM
TGI [42]: > 82.5 µM
GI50 [43]: 14.9 µM
TGI [43]: 38.4 µM
GI50 [44]: 22.6 µM
TGI [44]: > 82.5 µM
GI50 [45]: 23.7 µM
TGI [45]: > 82.5 µM
GI50 [58]: 10.6 µM
TGI [58]: 23.7 µM
GI50 [46]: 26.3 µM
TGI [46]: > 82.5 µM
GI50 [47]: 7.37 µM
TGI [47]: 32.4 µM
GI50 [48]: 22.5 µM
TGI [48]: > 82.5 µM
GI50 [49]: > 82.5 µM
TGI [49]: > 82.5 µM
GI50 [59]: 15.7 µM
TGI [59]: 45 µM
